{"source": "patent US20250145633A1", "about": "“SUBSTITUTED FURANOPYRIMIDINE COMPOUNDS AS PDE1 INHIBITORS” (Dart NeuroScience, LLC, priority 2017, published 2025)", "target": "human PDE1B enzyme (Homo sapiens (Human), UniProt Q01064)", "experiment": "IMAP TR-FRET PDE1B enzymatic assay", "format": "biochemical", "conditions": "negative log of half-maximal molar inhibitory concentration, 200 nM FAM-cAMP, values given as bins; for IC50: read-out: PDE1b (pIC50) (converted)", "procedure,_shortened": "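Full-length GST-tagged human PDE1B (250 pg/well) in IMAP BSA buffer with 10 U/ml calmodulin and 2.5 mM CaCl2; compound pre-incubated 5 min at room temperature, then 200 nM (final) FAM-cAMP for 30 min. IMAP binding reagent/Tb added, 1 h; TR-FRET 520/490 ratio read. IC50 from sigmoidal dose-response fit.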", "data": [{"smiles": "Cc1oc2ncnc(NC3(C)CC3)c2c1C(=O)N(C)C", "note": "[Example 81, N,N,6-Trimethyl-4-[(1-methylcyclopropyl)amino]furo[2,3-d]pyrimidine-5-carboxamide]", "values": [{"measurement": "IC50", "value": "100 to 1000", "unit": "nM"}]}, {"smiles": "CCNC(=O)c1c(C)oc2ncnc(NC3(C)CC3)c12", "note": "[Example 82, N-Ethyl-6-methyl-4-[(1-methylcyclopropyl)amino]furo[2,3-d]pyrimidine-5-carboxamide]", "values": [{"measurement": "IC50", "value": "10 to 100", "unit": "nM"}]}, {"smiles": "Cc1oc2ncnc(NC3(C)CC3)c2c1C(=O)NC1COC1", "note": "[Example 83, 6-Methyl-4-[(1-methylcyclopropyl)amino]-N-(oxetan-3-yl)furo[2,3-d]pyrimidine-5-carboxamide]", "values": [{"measurement": "IC50", "value": "100 to 1000", "unit": "nM"}]}, {"smiles": "Cc1oc2ncnc(NC3(C)CC3)c2c1C(=O)N1CCC(C)(c2ccc(F)cc2)C1", "note": "(stereo not shown) [Example 85, 5-[3-(4-Fluorophenyl)-3-methylpyrrolidine-1-carbonyl]-6-methyl-N-(1-methylcyclopropyl)furo[2,3-d]pyrimidin-4-amine]", "values": [{"measurement": "PDE1b (pIC50)", "value": ">8"}]}, {"smiles": "Cc1oc2ncnc(NC3(C)CC3)c2c1C(=O)NC1(C(F)(F)F)CC1", "note": "[Example 86, 6-Methyl-4-[(1-methylcyclopropyl)amino]-N-[1-(trifluoromethyl)cyclopropyl]furo[2,3-d]pyrimidine-5-carboxamide]", "values": [{"measurement": "IC50", "value": "10 to 100", "unit": "nM"}]}, {"smiles": "Cc1oc2ncnc(NC3(C)CC3)c2c1C(=O)NCc1ccc(C#N)c(F)c1", "note": "[Example 87, N-[(4-Cyano-3-fluorophenyl)methyl]-6-methyl-4-[(1-methylcyclopropyl)amino]furo[2,3-d]pyrimidine-5-carboxamide]", "values": [{"measurement": "IC50", "value": "10 to 100", "unit": "nM"}]}, {"smiles": "Cc1oc2ncnc(NC3(C)CC3)c2c1C(=O)NCc1ccc(F)c(C#N)c1", "note": "[Example 88, N-[(3-Cyano-4-fluorophenyl)methyl]-6-methyl-4-[(1-methylcyclopropyl)amino]furo[2,3-d]pyrimidine-5-carboxamide]", "values": [{"measurement": "PDE1b (pIC50)", "value": ">8"}]}, {"smiles": "Cc1oc2ncnc(NC3(C)CC3)c2c1C(=O)NC1(C)CC1", "note": "[Example 89, 6-Methyl-N-(1-methylcyclopropyl)-4-[(1-methylcyclopropyl)amino]furo[2,3-d]pyrimidine-5-carboxamide]", "values": [{"measurement": "IC50", "value": "10 to 100", "unit": "nM"}]}, {"smiles": "Cc1oc2ncnc(NC3(C)CC3)c2c1C(=O)NCC1COC1", "note": "[Example 90, 6-Methyl-4-[(1-methylcyclopropyl)amino]-N-(oxetan-3-ylmethyl)furo[2,3-d]pyrimidine-5-carboxamide]", "values": [{"measurement": "IC50", "value": "100 to 1000", "unit": "nM"}]}, {"smiles": "Cc1oc2ncnc(NC3(C)CC3)c2c1C(=O)NC1(C#N)CCC1", "note": "[Example 91, N-(1-Cyanocyclobutyl)-6-methyl-4-[(1-methylcyclopropyl)amino]furo[2,3-d]pyrimidine-5-carboxamide]", "values": [{"measurement": "IC50", "value": "10 to 100", "unit": "nM"}]}, {"smiles": "Cc1oc2ncnc(NC3(C)CC3)c2c1C(=O)NCc1ccon1", "note": "[Example 92, 6-Methyl-4-[(1-methylcyclopropyl)amino]-N-(1,2-oxazol-3-ylmethyl)furo[2,3-d]pyrimidine-5-carboxamide]", "values": [{"measurement": "IC50", "value": "10 to 100", "unit": "nM"}]}, {"smiles": "Cc1oc2ncnc(NC3(C)CC3)c2c1C(=O)NCC1(C)COC1", "note": "[Example 93, 6-Methyl-4-[(1-methylcyclopropyl)amino]-N-[(3-methyloxetan-3-yl)methyl]furo[2,3-d]pyrimidine-5-carboxamide]", "values": [{"measurement": "IC50", "value": "10 to 100", "unit": "nM"}]}, {"smiles": "Cc1oc2ncnc(NC3(C)CC3)c2c1C(=O)NCC1(F)COC1", "note": "[Example 94, N-[(3-Fluorooxetan-3-yl)methyl]-6-methyl-4-[(1-methylcyclopropyl)amino]furo[2,3-d]pyrimidine-5-carboxamide]", "values": [{"measurement": "IC50", "value": "100 to 1000", "unit": "nM"}]}, {"smiles": "COCCNC(=O)c1c(C)oc2ncnc(NC3(C)CC3)c12", "note": "[Example 95, N-(2-Methoxyethyl)-6-methyl-4-[(1-methylcyclopropyl)amino]furo[2,3-d]pyrimidine-5-carboxamide]", "values": [{"measurement": "IC50", "value": "100 to 1000", "unit": "nM"}]}, {"smiles": "Cc1oc2ncnc(NC3(C)CC3)c2c1C(=O)NCCN1CCOCC1", "note": "[Example 96, 6-Methyl-4-[(1-methylcyclopropyl)amino]-N-[2-(morpholin-4-yl)ethyl]furo[2,3-d]pyrimidine-5-carboxamide]", "values": [{"measurement": "IC50", "value": "10 to 100", "unit": "nM"}]}, {"smiles": "Cc1nc(CNC(=O)c2c(C)oc3ncnc(NC4(C)CC4)c23)cs1", "note": "[Example 97, 6-M ethyl-N-[(2-methyl-1,3-thiazol-4-yl)methyl]-4-[(1-methylcyclopropyl)amino]furo[2,3-d]pyrimidine-5-carboxamide]", "values": [{"measurement": "IC50", "value": "10 to 100", "unit": "nM"}]}, {"smiles": "Cc1oc2ncnc(NC3(C)CC3)c2c1C(=O)NCc1ccc[nH]1", "note": "[Example 98, 6-Methyl-4-[(1-methylcyclopropyl)amino]-N-(1H-pyrrol-2-ylmethyl)furo[2,3-d]pyrimidine-5-carboxamide]", "values": [{"measurement": "IC50", "value": "10 to 100", "unit": "nM"}]}, {"smiles": "Cc1oc2ncnc(NC3(C)CC3)c2c1C(=O)NCc1ccn(C)n1", "note": "[Example 99, 6-Methyl-N-[(1-methyl-1H-pyrazol-3-yl)methyl]-4-[(1-methylcyclopropyl)amino]furo[2,3-d]pyrimidine-5-carboxamide]", "values": [{"measurement": "IC50", "value": "10 to 100", "unit": "nM"}]}, {"smiles": "Cc1oc2ncnc(NC3(C)CC3)c2c1C(=O)NCc1cocn1", "note": "[Example 100, 6-Methyl-4-[(1-methylcyclopropyl)amino]-N-(1,3-oxazol-4-ylmethyl)furo[2,3-d]pyrimidine-5-carboxamide]", "values": [{"measurement": "IC50", "value": "10 to 100", "unit": "nM"}]}, {"smiles": "Cc1oc2ncnc(NC3(C)CC3)c2c1C(=O)N1CC(O)(c2ccc(F)cc2)C1", "note": "[Example 101, 3-(4-Fluorophenyl)-1-{6-methyl-4-[(1-methylcyclopropyl)amino]furo[2,3-d]pyrimidine-5-carbonyl}azetidin-3-ol]", "values": [{"measurement": "PDE1b (pIC50)", "value": ">8"}]}, {"smiles": "Cc1oc2ncnc(NC3(C)CC3)c2c1C(=O)NCc1ccnn1C", "note": "[Example 102, 6-Methyl-N-[(1-methyl-1H-pyrazol-5-yl)methyl]-4-[(1-methylcyclopropyl)amino]furo[2,3-d]pyrimidine-5-carboxamide]", "values": [{"measurement": "IC50", "value": "10 to 100", "unit": "nM"}]}, {"smiles": "COC1(c2ccccc2)CN(C(=O)c2c(C)oc3ncnc(NC4(C)CC4)c23)C1", "note": "[Example 103, 5-(3-Methoxy-3-phenylazetidine-1-carbonyl)-6-methyl-N-(1-methylcyclopropyl)furo[2,3-d]pyrimidin-4-amine]", "values": [{"measurement": "PDE1b (pIC50)", "value": ">8"}]}, {"smiles": "Cc1oc2ncnc(NC3(C)CC3)c2c1C(=O)NC1(C)CCC1", "note": "[Example 104, 6-Methyl-N-(1-methylcyclobutyl)-4-[(1-methylcyclopropyl)amino]furo[2,3-d]pyrimidine-5-carboxamide]", "values": [{"measurement": "IC50", "value": "10 to 100", "unit": "nM"}]}, {"smiles": "Cc1oc2ncnc(NC3(C)CC3)c2c1C(=O)NC1(C)COC1", "note": "[Example 105, 6-Methyl-4-[(1-methylcyclopropyl)amino]-N-(3-methyloxetan-3-yl)furo[2,3-d]pyrimidine-5-carboxamide]", "values": [{"measurement": "IC50", "value": "10 to 100", "unit": "nM"}]}, {"smiles": "Cc1oc2ncnc(NC3(C)CC3)c2c1C(=O)NC1CCOC1", "note": "(stereo not shown) [Example 106, 6-Methyl-4-[(1-methylcyclopropyl)amino]-N-(oxolan-3-yl)furo[2,3-d]pyrimidine-5-carboxamide]", "values": [{"measurement": "IC50", "value": "10 to 100", "unit": "nM"}]}, {"smiles": "Cc1oc2ncnc(NC3(C)CC3)c2c1C(=O)NC1(C)CCOC1", "note": "(stereo not shown) [Example 107, 6-Methyl-4-[(1-methylcyclopropyl)amino]-N-(3-methyloxolan-3-yl)furo[2,3-d]pyrimidine-5-carboxamide]", "values": [{"measurement": "IC50", "value": "10 to 100", "unit": "nM"}]}, {"smiles": "Cc1oc2ncnc(NC3(C)CC3)c2c1C(=O)NC1CCOCC1", "note": "[Example 108, 6-Methyl-4-[(1-methylcyclopropyl)amino]-N-(oxan-4-yl)furo[2,3-d]pyrimidine-5-carboxamide]", "values": [{"measurement": "IC50", "value": "10 to 100", "unit": "nM"}]}, {"smiles": "Cc1oc2ncnc(NC3(C)CC3)c2c1C(=O)NC1(C)CCOCC1", "note": "[Example 109, 6-Methyl-4-[(1-methylcyclopropyl)amino]-N-(4-methyloxan-4-yl)furo[2,3-d]pyrimidine-5-carboxamide]", "values": [{"measurement": "IC50", "value": "10 to 100", "unit": "nM"}]}, {"smiles": "Cc1oc2ncnc(NC3(C)CC3)c2c1C(=O)NC1CCOC(C)(C)C1", "note": "(stereo not shown) [Example 110, N-(2,2-Dimethyloxan-4-yl)-6-methyl-4-[(1-methylcyclopropyl)amino]furo[2,3-d]pyrimidine-5-carboxamide]", "values": [{"measurement": "IC50", "value": "10 to 100", "unit": "nM"}]}, {"smiles": "Cc1oc2ncnc(NC3(C)CC3)c2c1C(=O)NCc1cccn1C", "note": "[Example 111, 6-Methyl-N-[(1-methyl-1H-pyrrol-2-yl)methyl]-4-[(1-methylcyclopropyl)amino]furo[2,3-d]pyrimidine-5-carboxamide]", "values": [{"measurement": "IC50", "value": "10 to 100", "unit": "nM"}]}, {"smiles": "Cc1nc(CNC(=O)c2c(C)oc3ncnc(NC4(C)CC4)c23)c(C)o1", "note": "[Example 112, N-[(Dimethyl-1,3-oxazol-4-yl)methyl]-6-methyl-4-[(1-methylcyclopropyl)amino]furo[2,3-d]pyrimidine-5-carboxamide]", "values": [{"measurement": "IC50", "value": "10 to 100", "unit": "nM"}]}, {"smiles": "Cc1cc(CNC(=O)c2c(C)oc3ncnc(NC4(C)CC4)c23)no1", "note": "[Example 113, 6-Methyl-N-[(5-methyl-1,2-oxazol-3-yl)methyl]-4-[(1-methylcyclopropyl)amino]furo[2,3-d]pyrimidine-5-carboxamide]", "values": [{"measurement": "IC50", "value": "10 to 100", "unit": "nM"}]}, {"smiles": "Cc1oc2ncnc(NC3(C)CC3)c2c1C(=O)N[C@H]1[C@@H]2COC[C@@H]21", "note": "[Example 114, 6-Methyl-4-[(1-methylcyclopropyl)amino]-N-[(1R,5S,6R)-3-oxabicyclo[3.1.0]hexan-6-yl]furo[2,3-d]pyrimidine-5-carboxamide]", "values": [{"measurement": "IC50", "value": "10 to 100", "unit": "nM"}]}, {"smiles": "Cc1oc2ncnc(NC3(C)CC3)c2c1C(=O)NCc1cncn1C", "note": "[Example 115, 6-Methyl-N-[(1-methyl-1H-imidazol-5-yl)methyl]-4-[(1-methylcyclopropyl)amino]furo[2,3-d]pyrimidine-5-carboxamide]", "values": [{"measurement": "IC50", "value": "100 to 1000", "unit": "nM"}]}, {"smiles": "Cc1oc2ncnc(NC3(C)CC3)c2c1C(=O)NCc1cn(C)cn1", "note": "[Example 116, 6-Methyl-N-[(1-methyl-1H-imidazol-4-yl)methyl]-4-[(1-methylcyclopropyl)amino]furo[2,3-d]pyrimidine-5-carboxamide]", "values": [{"measurement": "IC50", "value": "10 to 100", "unit": "nM"}]}, {"smiles": "Cc1oc2ncnc(NC3(C)CC3)c2c1C(=O)N1CCOCC1", "note": "[Example 117, 6-Methyl-N-(1-methylcyclopropyl)-5-(morpholine-4-carbonyl)furo[2,3-d]pyrimidin-4-amine]", "values": [{"measurement": "IC50", "value": "100 to 1000", "unit": "nM"}]}, {"smiles": "Cc1oc2ncnc(NC3(C)CC3)c2c1C(=O)N1CCOC(c2ccccn2)C1", "note": "(stereo not shown) [Example 118, 6-Methyl-N-(1-methylcyclopropyl)-5-[2-(pyridin-2-yl)morpholine-4-carbonyl]furo[2,3-d]pyrimidin-4-amine]", "values": [{"measurement": "IC50", "value": "10 to 100", "unit": "nM"}]}]}
